Experimental findings from ChEMBL document CHEMBL1287709, “Trifluoromethylphenyl as P2 for ketoamide-based cathepsin S inhibitors” (Bioorg Med Chem Lett, 2010) are described below.

Assay [1] has as its target T1, Cathepsin S (Homo sapiens, UniProt P25774). Kind of assay: Inhibition of human cathepsin S by fluorescence assay.
For assay [2], the target named is T2, Cathepsin K (Homo sapiens, UniProt P43235).
T2 sequence (P43235 whole entry): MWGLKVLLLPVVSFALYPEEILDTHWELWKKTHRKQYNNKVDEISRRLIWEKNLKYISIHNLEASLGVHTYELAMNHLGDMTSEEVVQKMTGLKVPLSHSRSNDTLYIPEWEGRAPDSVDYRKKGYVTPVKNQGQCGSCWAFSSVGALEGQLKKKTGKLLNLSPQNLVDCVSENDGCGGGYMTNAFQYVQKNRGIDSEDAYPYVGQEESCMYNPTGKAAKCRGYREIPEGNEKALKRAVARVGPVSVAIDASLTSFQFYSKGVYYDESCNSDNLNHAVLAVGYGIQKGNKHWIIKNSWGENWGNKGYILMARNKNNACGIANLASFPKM
Kind of assay: Inhibition of human cathepsin K by fluorescence assay.

Assay [3] has as its target Procathepsin L (Homo sapiens, UniProt P07711). Put plainly: Inhibition of human cathepsin L by fluorescence assay.
Assay [4] deals with T1, Cathepsin S. Kind of assay: Inhibition of cathepsin S in human JY cells assessed as Lip10 accumulation by Western blotting. The class given is cell-based. In general terms: A western blot detects proteins with antibodies after separation by electrophoresis.
The target of assay [5] is Cathepsin B (Homo sapiens, UniProt P07858). Put plainly: Inhibition of human cathepsin B by fluorescence assay.
Assay [6] deals with T3, Cathepsin L2 (Homo sapiens, UniProt O60911).
T3 sequence (O60911 whole entry): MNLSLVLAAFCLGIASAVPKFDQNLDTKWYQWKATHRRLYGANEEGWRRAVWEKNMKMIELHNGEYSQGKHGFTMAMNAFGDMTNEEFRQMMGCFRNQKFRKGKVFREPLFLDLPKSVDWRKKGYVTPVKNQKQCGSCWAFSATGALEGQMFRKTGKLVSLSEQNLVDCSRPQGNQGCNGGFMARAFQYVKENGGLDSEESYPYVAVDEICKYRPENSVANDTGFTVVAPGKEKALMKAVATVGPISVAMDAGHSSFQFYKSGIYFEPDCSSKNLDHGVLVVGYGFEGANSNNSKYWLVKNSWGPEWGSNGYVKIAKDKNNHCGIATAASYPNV
Kind of assay: Inhibition of human cathepsin V by fluorescence assay.

One may read the IC50 as the point on the concentration scale where inhibition reaches its midpoint.

Procathepsin L, sequence (P07711 whole entry): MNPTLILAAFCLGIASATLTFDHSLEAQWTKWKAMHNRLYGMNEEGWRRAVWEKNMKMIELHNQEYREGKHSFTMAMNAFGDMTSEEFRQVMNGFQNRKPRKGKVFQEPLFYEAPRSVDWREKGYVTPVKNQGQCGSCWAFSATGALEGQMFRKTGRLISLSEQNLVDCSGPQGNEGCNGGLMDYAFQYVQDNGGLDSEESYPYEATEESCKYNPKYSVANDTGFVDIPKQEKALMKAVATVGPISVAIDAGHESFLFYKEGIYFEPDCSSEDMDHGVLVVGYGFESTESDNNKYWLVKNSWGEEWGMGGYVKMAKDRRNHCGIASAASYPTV
T1 sequence (P25774 whole entry): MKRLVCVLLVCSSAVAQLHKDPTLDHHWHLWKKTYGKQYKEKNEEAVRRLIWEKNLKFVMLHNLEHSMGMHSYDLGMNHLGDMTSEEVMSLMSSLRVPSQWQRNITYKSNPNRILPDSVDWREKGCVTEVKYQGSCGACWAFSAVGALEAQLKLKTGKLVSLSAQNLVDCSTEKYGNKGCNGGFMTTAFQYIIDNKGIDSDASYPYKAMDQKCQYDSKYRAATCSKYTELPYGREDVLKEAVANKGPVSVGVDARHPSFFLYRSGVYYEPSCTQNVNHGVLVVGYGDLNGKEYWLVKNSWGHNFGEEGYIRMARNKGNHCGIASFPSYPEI

In the case of `CCCCC(NC(=O)c1ccc(OCc2ccccn2)c(C(F)(F)F)c1Cl)C(=O)C(=O)Nc1ccn(C)n1` (stereo not drawn), the IC50 in assay [1] was 1.9 nM; in assay [2] it was 47.9 nM.
With `CCOc1ccc(C(=O)NC(C)C(=O)C(N)=O)c(Cl)c1C(F)(F)F` (stereo not drawn), the IC50 in assay [1] came out at 11 nM; in assay [2] it was 195 nM.
With `CC(NC(=O)c1cccc(C(F)(F)F)c1Cl)C(=O)C(=O)Nc1cc[nH]n1` (stereo not drawn), the 50% inhibitory concentration (IC50) is 14.1 nM in assay [1] and 51.3 nM in assay [2].
Turning to `CCC(C=O)NC(=O)c1cccc(C(F)(F)F)c1C` (stereo not drawn), the IC50 in assay [1] was found to be 18 nM.
For `CC(NC(=O)c1ccc(OCc2ccccn2)c(C(F)(F)F)c1Cl)C(=O)C(N)=O` (stereo not drawn), the IC50 amounted to 4.8 nM in assay [1] and 37.2 nM in assay [2].
For the compound `CCC(C=O)NC(=O)c1cccc(C(F)(F)F)c1F` (stereo not drawn), the IC50 in assay [1] amounted to 36 nM.
Regarding `CC(C=O)NC(=O)c1cccc(C(F)(F)F)c1Cl` (stereo not drawn), half-maximal inhibition in assay [1] (IC50) was put at 110 nM.
In the case of `CCC(NC(=O)c1ccc(OCc2ccccn2)c(C(F)(F)F)c1Cl)C(=O)C(=O)Nc1ccn(C)n1` (stereo not drawn), the concentration for half-maximal inhibition (IC50) came out at 141 nM in assay [3]; 78 nM in assay [4]; 1.1 nM in assay [1]; 3240 nM in assay [5]; 20.9 nM in assay [2]; 16.6 nM in assay [6].
As for `CCC(NC(=O)c1ccc(OCc2ccccn2)c(C(F)(F)F)c1Cl)C(=O)C(N)=O` (stereo not drawn), the half-inhibitory concentration (IC50) in assay [4] stood at 1920 nM; in assay [1], 1.1 nM.
Take `CCC(C=O)NC(=O)c1cccc(C(F)(F)F)c1OC` (stereo not drawn): it took 692 nM to reach half-maximal inhibition in assay [1] (IC50).
As for `CC(NC(=O)c1cccc(C(F)(F)F)c1Cl)C(=O)C(N)=O` (stereo not drawn), the IC50 in assay [1] came out at 30.9 nM; in assay [2], 107 nM.
For `CC(C)C(NC(=O)c1ccc(OCc2ccccn2)c(C(F)(F)F)c1Cl)C(=O)C(=O)Nc1ccn(C)n1` (stereo not drawn) the same measures were 2.3 nM and 11.5 nM.
As for `N#CCNC(=O)c1cccc(C(F)(F)F)c1`, the IC50 in assay [1] and in assay [2] was greater than 10000 nM in each case.
As to `Cc1cc(NC(=O)C(=O)C(C)NC(=O)c2cccc(C(F)(F)F)c2Cl)[nH]n1` (stereo not drawn), the IC50 in assay [1] was 10.5 nM; in assay [2] it was 26.3 nM.
As for `CNC(=O)C(=O)C(C)NC(=O)c1ccc(OCc2ccccn2)c(C(F)(F)F)c1Cl` (stereo not drawn), the concentration for half-maximal inhibition (IC50) was greater than 10000 nM in assay [3]; 19.5 nM in assay [1]; greater than 10000 nM in assay [5]; 46.8 nM in assay [2]; 1120 nM in assay [6].
`CCC(NC(=O)c1cccc(C(F)(F)F)c1Cl)C(=O)C(=O)Nc1ccn[nH]1` (stereo not drawn): the half-maximal inhibitory concentration (IC50) in assay [3] worked out at 891 nM; in assay [4], 1300 nM; in assay [1] it was 2.3 nM; in assay [5], 5750 nM; in assay [2] it was 11.7 nM; in assay [6], 29.5 nM.
For the compound `CC(NC(=O)c1ccc(OCc2ccccn2)c(C(F)(F)F)c1Cl)C(=O)C(=O)Nc1ccn(C)n1` (stereo not drawn), the IC50 in assay [3] is 479 nM; in assay [1] it was 1 nM; in assay [5], 15100 nM; in assay [2], 12.9 nM; in assay [6], 36.3 nM.
In the same order, the values of `CC(NC(=O)c1ccc(OCc2ccccn2)c(C(F)(F)F)c1Cl)C(=O)C(=O)N(C)C` (stereo not drawn) are greater than 10000 nM, greater than 10000 nM, greater than 10000 nM, greater than 10000 nM and greater than 10000 nM.
Take `CCOc1ccc(C(=O)NC(C)C(=O)C(=O)Nc2ccn[nH]2)c(Cl)c1C(F)(F)F` (stereo not drawn): the results for the IC50 in assay [1] and in assay [2] were 2.9 nM and 91.2 nM, respectively.
For `CCC(C=O)NC(=O)c1cccc(C(F)(F)F)c1Cl` (stereo not drawn), the IC50 in assay [1] stood at 31 nM; in assay [2] it was 32 nM.
In turn, `CCC(C=O)NC(=O)c1cccc(C(F)(F)F)c1` (stereo not drawn) came in with an IC50 in assay [1] of 1070 nM.
Regarding `O=CCNC(=O)c1cccc(C(F)(F)F)c1`, the half-maximal inhibitory concentration (IC50) in assay [1] and in assay [2] was greater than 10000 nM each time.
Turning to `CC(NC(=O)c1cccc(C(F)(F)F)c1Cl)C(=O)C(=O)Nc1ccn(C)n1` (stereo not drawn), the IC50 in assay [1] was found to be 8.5 nM; in assay [2], 33.1 nM.
